# From ChEMBL document CHEMBL1201861, “Genomics of Drug Sensitity in Cancer screening data, Wellcome Trust Sanger Institute”
# Key:
# Assay in all cases: cells
# KYSE-410 = type: functional, cell-based, Homo sapiens; conditions: Homo sapiens, KYSE-410;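 further: growth inhibition of KYSE-410 cells, measured through a cell viability readout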
# Description: SANGER: Inhibition of human KYSE-410 cell growth in a cell viability assay.
# BHT-101 = type: functional, cell-based, Homo sapiens; conditions: Homo sapiens, BHT-101
# Description: SANGER: Inhibition of human BHT-101 cell growth in a cell viability assay.
# KLE = type: functional, cell-based, Homo sapiens; conditions: Homo sapiens, KLE;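 further: growth inhibition of human KLE cells, read out with a cell viability assay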
# Description: SANGER: Inhibition of human KLE cell growth in a cell viability assay.
# ES8 = type: functional, cell-based, Homo sapiens; conditions: Homo sapiens, ES8;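 further: growth inhibition of human ES8 cells, read out with a cell viability assay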
# Description: SANGER: Inhibition of human ES8 cell growth in a cell viability assay.
# A498 = type: functional, cell-based, Homo sapiens; conditions: Homo sapiens, A498;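 further: growth inhibition of human A498 cells, read out with a cell viability assay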
# Description: SANGER: Inhibition of human A498 cell growth in a cell viability assay.
# COLO-679 = type: functional, cell-based, Homo sapiens; conditions: Homo sapiens, COLO-679
# Description: SANGER: Inhibition of human COLO-679 cell growth in a cell viability assay.
# DB = type: functional, cell-based; conditions: Homo sapiens
# Description: SANGER: Inhibition of human DB cell growth in a cell viability assay.
# HT-3 = type: functional, cell-based, Homo sapiens; conditions: Homo sapiens, HT-3;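 further: growth inhibition measured with a cell viability readout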
# Description: SANGER: Inhibition of human HT-3 cell growth in a cell viability assay.
# NCI-H520 = type: functional, cell-based, Homo sapiens; conditions: Homo sapiens, NCI-H520;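 further: growth inhibition of NCI-H520 cells, measured by a cell viability assay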
# Description: SANGER: Inhibition of human NCI-H520 cell growth in a cell viability assay.
# C3A = type: functional, cell-based, Homo sapiens; conditions: Homo sapiens, C3A;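 further: growth inhibition of C3A human cells, quantified with a cell viability readout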
# Description: SANGER: Inhibition of human C3A cell growth in a cell viability assay.
# DEL = type: functional, cell-based; conditions: Homo sapiens;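 further: growth inhibition of the human DEL cell line, read out with a cell viability assay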
# Description: SANGER: Inhibition of human DEL cell growth in a cell viability assay.
# MZ1-PC = type: functional, cell-based, Homo sapiens; conditions: Homo sapiens, MZ1-PC;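 further: cell viability assay measuring growth inhibition of human MZ1-PC cells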
# Description: SANGER: Inhibition of human MZ1-PC cell growth in a cell viability assay.
# C-33-A = type: functional, cell-based, Homo sapiens; conditions: Homo sapiens, C-33-A;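 further: cell viability assay measuring growth inhibition of C-33-A cells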
# Description: SANGER: Inhibition of human C-33-A cell growth in a cell viability assay.
# MEG-01 = type: functional, cell-based; conditions: Homo sapiens;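 further: growth inhibition of MEG-01 cells, read out by a cell viability assay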
# Description: SANGER: Inhibition of human MEG-01 cell growth in a cell viability assay.
# LOX IMVI = type: functional, cell-based; conditions: Homo sapiens
# Description: SANGER: Inhibition of human LOXIMVI cell growth in a cell viability assay.
# SNU-449 = type: functional, cell-based, Homo sapiens; conditions: Homo sapiens, SNU-449
# Description: SANGER: Inhibition of human SNU-449 cell growth in a cell viability assay.
# NCI-H1693 = type: functional, cell-based, Homo sapiens; conditions: Homo sapiens, NCI-H1693;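 further: growth inhibition of the human cell line, read out with a cell viability assay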
# Description: SANGER: Inhibition of human NCI-H1693 cell growth in a cell viability assay.
# VM-CUB-1 = type: functional, cell-based; conditions: Homo sapiens;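 further: cell viability assay measuring growth inhibition of the human VM-CUB-1 cell line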
# Description: SANGER: Inhibition of human VM-CUB-1 cell growth in a cell viability assay.
# ES4 = type: functional, cell-based, Homo sapiens; conditions: Homo sapiens, ES4;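 further: growth inhibition of human ES4 cells, read out by a cell viability assay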
# Description: SANGER: Inhibition of human ES4 cell growth in a cell viability assay.
# HO-1-N-1 = type: functional, cell-based, Homo sapiens; conditions: Homo sapiens, HO-1-N-1;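 further: growth inhibition of human HO-1-N-1 cells, read out with a cell viability assay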
# Description: SANGER: Inhibition of human HO-1-N-1 cell growth in a cell viability assay.
# MKN-28 = type: functional, cell-based, Homo sapiens; conditions: Homo sapiens, MKN-28;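 further: cell viability assay read-out, IC50 reflects suppression of growth of human MKN-28 cells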
# Description: SANGER: Inhibition of human MKN28 cell growth in a cell viability assay.
# SK-MEL-24 = type: functional, cell-based; conditions: Homo sapiens;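 further: growth inhibition read out by a cell viability assay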
# Description: SANGER: Inhibition of human SK-MEL-24 cell growth in a cell viability assay.
# 8305C = type: functional, cell-based, Homo sapiens; conditions: Homo sapiens, 8305C
# Description: SANGER: Inhibition of human 8305C cell growth in a cell viability assay.
# ETK-1 = type: functional, cell-based, Homo sapiens; conditions: Homo sapiens, ETK-1;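 further: growth inhibition of human ETK-1 cells, read out with a cell viability assay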
# Description: SANGER: Inhibition of human ETK-1 cell growth in a cell viability assay.
# EW-13 = type: functional, cell-based; conditions: Homo sapiens;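 further: growth inhibition of EW-13 cells, read out with a cell viability assay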
# Description: SANGER: Inhibition of human EW-13 cell growth in a cell viability assay.
# HuO-3N1 = type: functional, cell-based, Homo sapiens; conditions: Homo sapiens, HuO-3N1;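 further: cell viability readout used to measure how strongly compounds suppress proliferation of human HuO-3N1 cells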
# Description: SANGER: Inhibition of human HuO-3N1 cell growth in a cell viability assay.
# CAL-27 = type: functional, cell-based, Homo sapiens; conditions: Homo sapiens, CAL-27;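 further: Viability-based readout, IC50 reflecting inhibition of CAL-27 cell growth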
# Description: SANGER: Inhibition of human CAL-27 cell growth in a cell viability assay.
# LC-2-ad = type: functional, cell-based, Homo sapiens; conditions: Homo sapiens, LC-2-ad;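 further: growth inhibition of human LC-2-ad cells, read out with a cell viability assay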
# Description: SANGER: Inhibition of human LC-2-ad cell growth in a cell viability assay.
# LU-99A = type: functional, cell-based, Homo sapiens; conditions: Homo sapiens, LU-99A;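 further: growth inhibition of LU-99A cells, read out with a cell viability assay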
# Description: SANGER: Inhibition of human LU-99A cell growth in a cell viability assay.
# NCI-H2126 = type: functional, cell-based, Homo sapiens; conditions: Homo sapiens, NCI-H2126;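 further: growth inhibition of the cancer cell line, determined with a cell viability readout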
# Description: SANGER: Inhibition of human NCI-H2126 cell growth in a cell viability assay.
# T98G = type: functional, cell-based, Homo sapiens; conditions: Homo sapiens, T98G;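 further: growth inhibition of T98G cells, read out by a cell viability assay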
# Description: SANGER: Inhibition of human T98G cell growth in a cell viability assay.
# LS-513 = type: functional, cell-based, Homo sapiens; conditions: Homo sapiens, LS-513
# Description: SANGER: Inhibition of human LS-513 cell growth in a cell viability assay.
# CAL-51 = type: functional, cell-based, Homo sapiens; conditions: Homo sapiens, CAL-51;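 further: human CAL-51 cell line, growth inhibition read out via a cell viability assay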
# Description: SANGER: Inhibition of human CAL-51 cell growth in a cell viability assay.
# KE-37 = type: functional, cell-based; conditions: Homo sapiens;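 further: growth inhibition of KE-37 cells, read out with a cell viability assay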
# Description: SANGER: Inhibition of human KE-37 cell growth in a cell viability assay.
# MHH-PREB-1 = type: functional, cell-based; conditions: Homo sapiens;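 further: cell viability assay measuring inhibition of proliferation of human MHH-PREB-1 cells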
# Description: SANGER: Inhibition of human MHH-PREB-1 cell growth in a cell viability assay.
# SW-620 = type: functional, cell-based, Homo sapiens; conditions: Homo sapiens, SW-620;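 further: growth inhibition of human SW-620 cells, measured by a cell viability assay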
# Description: SANGER: Inhibition of human SW620 cell growth in a cell viability assay.
# A2780 = type: functional, cell-based, Homo sapiens; conditions: Homo sapiens, A2780;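 further: growth inhibition of A2780 cells, read out with a cell viability assay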
# Description: SANGER: Inhibition of human A2780 cell growth in a cell viability assay.
# CAL-62 = type: functional, cell-based, Homo sapiens; conditions: Homo sapiens, CAL-62;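 further: growth inhibition of CAL-62 cells, read out with a cell viability assay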
# Description: SANGER: Inhibition of human CAL-62 cell growth in a cell viability assay.
# SW48 = type: functional, cell-based, Homo sapiens; conditions: Homo sapiens, SW48;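 further: growth inhibition of SW48 cells, read out with a cell viability assay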
# Description: SANGER: Inhibition of human SW48 cell growth in a cell viability assay.
# YKG-1 = type: functional, cell-based, Homo sapiens; conditions: Homo sapiens, YKG-1;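 further: cell growth inhibition, read out with a viability assay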
# Description: SANGER: Inhibition of human YKG-1 cell growth in a cell viability assay.
# CHP-212 = type: functional, cell-based, Homo sapiens; conditions: Homo sapiens, CHP-212
# Description: SANGER: Inhibition of human CHP-212 cell growth in a cell viability assay.
# IST-MEL1 = type: functional, cell-based, Homo sapiens; conditions: Homo sapiens, IST-MEL1;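 further: growth inhibition of the cell line, read out with a cell viability assay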
# Description: SANGER: Inhibition of human IST-MEL1 cell growth in a cell viability assay.
# BB30-HNC = type: functional, cell-based, Homo sapiens; conditions: Homo sapiens, BB30-HNC;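 further: growth inhibition of the cultured cell line, read out by a cell viability assay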
# Description: SANGER: Inhibition of human BB30-HNC cell growth in a cell viability assay.
# Detroit 562 = type: functional, cell-based, Homo sapiens; conditions: Homo sapiens, Detroit 562;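 further: growth inhibition of human Detroit 562 cells, read out by a cell viability assay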
# Description: SANGER: Inhibition of human Detroit562 cell growth in a cell viability assay.
# KNS-42 = type: functional, cell-based, Homo sapiens; conditions: Homo sapiens, KNS-42;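 further: growth inhibition of KNS-42 cells, read out with a cell viability assay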
# Description: SANGER: Inhibition of human KNS-42 cell growth in a cell viability assay.
# KYSE-70 cell line = type: functional, cell-based, Homo sapiens; conditions: Homo sapiens, KYSE-70;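 further: cell viability assay read-out, with IC50 expressing suppression of KYSE-70 cell growth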
# Description: SANGER: Inhibition of human KYSE-70 cell growth in a cell viability assay.
# NB5 = type: functional, cell-based, Homo sapiens; conditions: Homo sapiens, NB5;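 further: growth inhibition of NB5 cells, read out as cell viability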
# Description: SANGER: Inhibition of human NB5 cell growth in a cell viability assay.
# NCI-H526 = type: functional, cell-based; conditions: Homo sapiens;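 further: growth inhibition of the human NCI-H526 cell line, measured by a cell viability assay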
# Description: SANGER: Inhibition of human NCI-H526 cell growth in a cell viability assay.
# MHH-ES-1 = type: functional, cell-based, Homo sapiens; conditions: Homo sapiens, MHH-ES-1;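 further: cell growth inhibition measured by a cell viability assay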
# Description: SANGER: Inhibition of human MHH-ES-1 cell growth in a cell viability assay.
# SW13 = type: functional, cell-based, Homo sapiens; conditions: Homo sapiens, SW13;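 further: IC50 is inhibition of SW13 cell growth, read out with a cell viability assay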
# Description: SANGER: Inhibition of human SW13 cell growth in a cell viability assay.
# SBC-1 = type: functional, cell-based; conditions: Homo sapiens;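 further: cell viability assay measuring growth inhibition of the SBC-1 cell line, IC50 being the concentration that halves growth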
# Description: SANGER: Inhibition of human SBC-1 cell growth in a cell viability assay.
# BB49-HNC = type: functional, cell-based, Homo sapiens; conditions: Homo sapiens, BB49-HNC;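 further: cell viability assay read-out, reported as inhibition of BB49-HNC cell growth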
# Description: SANGER: Inhibition of human BB49-HNC cell growth in a cell viability assay.
structure (smiles),measurement,setting,value
Nc1ccn([C@@H]2O[C@H](CO)[C@@H](O)[C@@H]2O)c(=O)n1 [CYTARABINE],IC50,KYSE-410,> 2 µM
same,IC50,BHT-101,0.0418 µM
same,IC50,KLE,> 2 µM
same,IC50,ES8,0.124 µM
same,IC50,A498,> 2 µM
same,IC50,COLO-679,> 2 µM
same,IC50,DB,0.246 µM
same,IC50,HT-3,1.38 µM
same,IC50,NCI-H520,> 2 µM
same,IC50,C3A,> 2 µM
same,IC50,DEL,0.875 µM
same,IC50,MZ1-PC,1.8 µM
same,IC50,C-33-A,0.551 µM
same,IC50,MEG-01,> 2 µM
same,IC50,LOX IMVI,0.29 µM
same,IC50,SNU-449,> 2 µM
same,IC50,NCI-H1693,> 2 µM
same,IC50,VM-CUB-1,0.533 µM
same,IC50,ES4,0.214 µM
same,IC50,HO-1-N-1,0.691 µM
same,IC50,MKN-28,> 2 µM
same,IC50,SK-MEL-24,> 2 µM
same,IC50,8305C,> 2 µM
same,IC50,ETK-1,> 2 µM
same,IC50,EW-13,1.98 µM
same,IC50,HuO-3N1,1.33 µM
same,IC50,CAL-27,1.93 µM
same,IC50,LC-2-ad,0.23 µM
same,IC50,LU-99A,0.266 µM
same,IC50,NCI-H2126,> 2 µM
same,IC50,T98G,1.72 µM
same,IC50,LS-513,0.38 µM
same,IC50,CAL-51,0.571 µM
same,IC50,KE-37,0.111 µM
same,IC50,MHH-PREB-1,0.533 µM
same,IC50,SW-620,0.349 µM
same,IC50,A2780,0.162 µM
same,IC50,CAL-62,0.71 µM
same,IC50,SW48,0.366 µM
same,IC50,YKG-1,0.298 µM
same,IC50,CHP-212,0.0335 µM
same,IC50,IST-MEL1,0.381 µM
same,IC50,BB30-HNC,> 2 µM
same,IC50,Detroit 562,> 2 µM
same,IC50,KNS-42,> 2 µM
same,IC50,KYSE-70 cell line,1.86 µM
same,IC50,NB5,0.452 µM
same,IC50,NCI-H526,> 2 µM
same,IC50,MHH-ES-1,0.323 µM
same,IC50,SW13,0.476 µM
same,IC50,SBC-1,> 2 µM
same,IC50,BB49-HNC,> 2 µM
CC(=O)O[C@@]12CO[C@@H]1C[C@H](O)[C@@]1(C)C(=O)[C@H](O)C3=C(C)[C@@H](OC(=O)[C@H](O)[C@@H](NC(=O)OC(C)(C)C)c4ccccc4)C[C@@](O)([C@@H](OC(=O)c4ccccc4)[C@H]21)C3(C)C [DOCETAXEL],IC50,KYSE-410,0.00124 µM
same,IC50,BHT-101,0.0098 µM
same,IC50,KLE,> 0.01 µM
same,IC50,ES8,0.00026 µM
same,IC50,A498,0.000278 µM
same,IC50,COLO-679,> 0.01 µM
same,IC50,DB,0.00178 µM
same,IC50,HT-3,0.00282 µM
same,IC50,NCI-H520,0.00372 µM
same,IC50,C3A,> 0.01 µM
same,IC50,DEL,0.00301 µM
same,IC50,MZ1-PC,0.00118 µM
same,IC50,C-33-A,0.00266 µM
same,IC50,MEG-01,> 0.01 µM
same,IC50,LOX IMVI,0.00116 µM
same,IC50,SNU-449,> 0.01 µM
same,IC50,NCI-H1693,> 0.01 µM
same,IC50,VM-CUB-1,0.00105 µM
same,IC50,ES4,0.00155 µM
same,IC50,HO-1-N-1,0.000281 µM
same,IC50,MKN-28,0.00317 µM
same,IC50,SK-MEL-24,> 0.01 µM
same,IC50,8305C,0.00576 µM
same,IC50,ETK-1,0.000558 µM
same,IC50,EW-13,> 0.01 µM
same,IC50,HuO-3N1,0.000302 µM
same,IC50,CAL-27,0.000339 µM
same,IC50,LC-2-ad,0.0034 µM
same,IC50,LU-99A,> 0.01 µM
same,IC50,NCI-H2126,0.00773 µM
same,IC50,T98G,0.00117 µM
same,IC50,LS-513,> 0.01 µM
same,IC50,CAL-51,0.00271 µM
same,IC50,KE-37,> 0.01 µM
same,IC50,MHH-PREB-1,0.00189 µM
same,IC50,SW-620,0.00397 µM
same,IC50,A2780,0.00335 µM
same,IC50,CAL-62,0.000185 µM
same,IC50,SW48,0.00101 µM
same,IC50,YKG-1,0.000707 µM
same,IC50,CHP-212,0.00073 µM
same,IC50,IST-MEL1,0.00225 µM
same,IC50,BB30-HNC,0.00105 µM
same,IC50,Detroit 562,0.000902 µM
same,IC50,KNS-42,0.00412 µM
same,IC50,KYSE-70 cell line,0.00624 µM
same,IC50,NB5,> 0.01 µM
same,IC50,NCI-H526,0.00176 µM
same,IC50,MHH-ES-1,0.0007 µM
same,IC50,SW13,0.00169 µM
same,IC50,SBC-1,0.00043 µM
same,IC50,BB49-HNC,0.00212 µM
